The structures appear in SMILES notation. Where “and” joins values, the source holds several entries; their conditions need not be identical. Equal entries are not always repeated.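 Briefly, cells in 96-well plates were exposed to five compound concentrations for 48 h, and endpoints were estimated by linear interpolation. The concentration for 50% growth inhibition is given as GI50. The concentration for full growth arrest is given as TGI.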

The results in this text go back to PubChem BioAssay (NCI).

Some test systems named below: BT-549 breast; DU-145 prostate; HS 578T breast; MDA-MB-435; NCI/ADR-RES ovarian; PC-3 prostate.
What all share (assay): NCI anticancer screen, dose series, 48 h

As to `CCc1nc(N)nc(N)c1C#CC(C)c1cc(-c2ccnc(C)c2)c2oc(C)nc2c1` (stereo not given), the GI50 is 1.03 µM in the test with BT-549 breast; < 0.01 µM with DU-145 prostate; 1.5 µM with HS 578T breast; < 0.01 µM with MDA-MB-435; 0.0146 µM in the test with NCI/ADR-RES ovarian; < 0.01 µM with PC-3 prostate. The TGI in the test on BT-549 breast came to 8.31 µM; in the test with DU-145 prostate, 7.9 µM; in the test on HS 578T breast it was 13.9 µM; in the test on MDA-MB-435, 12.3 µM; with NCI/ADR-RES ovarian, 10.1 µM; in the test on PC-3 prostate it was 12.1 µM.

Turning to `CC(=O)n1c(-c2ccc(Cl)c(Cl)c2)cn(-c2ccc(Cl)cc2)c1=O`, the GI50 in the test on BT-549 breast is 17 µM; in the test with DU-145 prostate, 17.4 µM; in the test on HS 578T breast, 15.5 µM; with MDA-MB-435, 84.1 µM; in the test on NCI/ADR-RES ovarian it was 35.2 µM; in the test with PC-3 prostate, 26.6 µM. Besides, the TGI with BT-549 breast is 36.6 µM; with DU-145 prostate, 45.8 µM; in the test with HS 578T breast, 36.5 µM; in the test with MDA-MB-435, > 100 µM; in the test with NCI/ADR-RES ovarian, > 100 µM; in the test on PC-3 prostate, > 100 µM.

As to `O=C(NN1C(=O)CSC12CCC(c1ccccc1)CC2)c1[nH]c2ccc(F)cc2c1-c1ccccc1` (stereo not given), the GI50 is 19.9 µM in the test with BT-549 breast; 16.5 µM in the test on DU-145 prostate; 21.4 µM with HS 578T breast; 18.8 µM with MDA-MB-435; 18.1 µM in the test with PC-3 prostate. Moreover, the TGI in the test on BT-549 breast amounted to 34.8 µM; in the test on DU-145 prostate, 33.6 µM; in the test with HS 578T breast it was 52.3 µM; with MDA-MB-435, 36.7 µM; with PC-3 prostate, 39.6 µM.

For `NCCSC(C[N+](=O)[O-])c1ccccc1Cl` (stereo not given), the GI50 in the test with BT-549 breast is 2.03 µM; in the test with DU-145 prostate, 1.92 µM; with HS 578T breast it was 2.46 µM; in the test with MDA-MB-435, 1.87 µM; in the test on NCI/ADR-RES ovarian, 9.85 µM; with PC-3 prostate, 4.19 µM. Further, the TGI was 4.26 µM in the test on BT-549 breast; 3.62 µM with DU-145 prostate; 7.63 µM in the test with HS 578T breast; 5.42 µM in the test on MDA-MB-435; > 23.4 µM with NCI/ADR-RES ovarian; > 32.7 µM in the test with PC-3 prostate.

In the case of `O=CN1N=C(c2ccc(Nc3ccnc4cc(Cl)ccc34)cc2)CC1c1ccc(Cl)cc1` (stereo not given), the GI50 is 4.77 µM with BT-549 breast; 1.94 µM in the test on DU-145 prostate; 3.93 µM in the test on HS 578T breast; 0.198 µM in the test with MDA-MB-435; 0.359 µM in the test on NCI/ADR-RES ovarian; 0.475 µM in the test on PC-3 prostate. Besides, the TGI in the test with BT-549 breast is > 100 µM; in the test with DU-145 prostate, > 100 µM; in the test with HS 578T breast, > 100 µM; in the test on MDA-MB-435 it was 0.48 µM; in the test with NCI/ADR-RES ovarian, > 100 µM; in the test on PC-3 prostate, > 100 µM.

In the case of `CCCC(CCC)C(=O)OCC1(CO)C/C(=C\c2ccc(C(F)(F)F)cc2)C(=O)O1` (stereo not given), the GI50 in the test on BT-549 breast is 7.04 µM; in the test with DU-145 prostate, 13.4 µM; in the test with HS 578T breast it was 12.1 µM; in the test on MDA-MB-435, 0.304 µM; with NCI/ADR-RES ovarian, 15.3 µM; in the test with PC-3 prostate it was 12.3 µM. Further, the TGI in the test on BT-549 breast was 21 µM; with DU-145 prostate it was 27.8 µM; in the test on HS 578T breast, 30 µM; with MDA-MB-435, 19.3 µM; in the test with NCI/ADR-RES ovarian, 32 µM; in the test on PC-3 prostate, 25.4 µM.

As to `O=c1[nH]nc(-c2ccccc2)c2c(-c3ccccc3)onc12`, the GI50 in the test on BT-549 breast is 0.506 µM; in the test on DU-145 prostate it was 1.79 µM; in the test on HS 578T breast, 0.255 µM; in the test on NCI/ADR-RES ovarian, 0.331 µM; in the test with PC-3 prostate, 2.12 µM. Moreover, the TGI with BT-549 breast is > 47.8 µM; in the test on DU-145 prostate it was 27.2 µM; in the test on HS 578T breast, 1.37 µM; in the test with NCI/ADR-RES ovarian, > 100 µM; in the test on PC-3 prostate it was > 100 µM.

In the case of `CCc1c2c(nc3ccc(OCc4ccc(B5OC(C)(C)C(C)(C)O5)cc4)cc13)-c1cc3c(c(=O)n1C2)COC(=O)[C@]3(O)CC`, the GI50 in the test with BT-549 breast is 0.0757 µM; with DU-145 prostate it was 0.0223 µM; in the test on HS 578T breast, 1.11 µM; in the test with MDA-MB-435 it was 0.101 µM; in the test with NCI/ADR-RES ovarian, 0.0622 µM; in the test on PC-3 prostate, 0.146 µM. Also, the TGI with BT-549 breast was > 100 µM; with DU-145 prostate, > 49.8 µM; with HS 578T breast, > 100 µM; in the test with MDA-MB-435, > 100 µM; in the test on NCI/ADR-RES ovarian, > 100 µM; in the test with PC-3 prostate, > 100 µM.

`CCCCN(CCCC)CCC(O)c1cc2ccc(C(F)(F)F)cc2c2cc(C(F)(F)F)ccc12` (stereo not given): the GI50 in the test on DU-145 prostate was 6.15 µM; in the test on HS 578T breast, 1.55 µM; with MDA-MB-435, 2.13 µM; in the test on NCI/ADR-RES ovarian, 2.69 µM; with PC-3 prostate it was 2.52 µM. The TGI with DU-145 prostate is 18.7 µM; in the test with HS 578T breast, 4.62 µM; with MDA-MB-435, 4.59 µM; with NCI/ADR-RES ovarian, 11.9 µM; in the test with PC-3 prostate, 9.67 µM.

Take `O=C1OC(OC/C(Br)=C(/Br)COC2OC(=O)C(Cl)=C2Cl)C(Cl)=C1Cl` (stereo not given): the TGI amounted to 30.6 µM with DU-145 prostate; 64.7 µM in the test on HS 578T breast; 24.2 µM with MDA-MB-435; 36.9 µM with NCI/ADR-RES ovarian; 30.2 µM in the test with PC-3 prostate.

`COC1C(O)C(C)OC(O[C@@H]2C[C@H]3CC[C@@H]4[C@H](CC[C@]5(C)[C@@H](C6=CC(=O)OC6)CC[C@]45O)[C@@]3(C)[C@H](O)C2)C1O` (stereo not given in full): the TGI was 0.159 µM in the test with BT-549 breast; 0.0812 µM in the test with DU-145 prostate; > 100 µM with HS 578T breast; 0.379 µM in the test on MDA-MB-435; 0.183 µM with NCI/ADR-RES ovarian.

For the molecule `O=C1C=C(OCCCl)C(=O)c2c(O)ccc(O)c21`, the TGI with BT-549 breast was 0.477 µM; in the test with DU-145 prostate, 0.746 µM and 2.29 µM; with MDA-MB-435, 0.389 µM and 0.294 µM; in the test on PC-3 prostate, 4.32 µM and 10.1 µM. For the same molecule, the GI50 in the test with DU-145 prostate was 1.01 µM; in the test on MDA-MB-435 it was 0.157 µM; with NCI/ADR-RES ovarian it was 9.41 µM; in the test with PC-3 prostate it was 2.67 µM.

As to `COc1ccc2c(c1)C=C1CSCC3=Cc4cc(OC)ccc4OC13O2`, the GI50 is 0.816 µM in the test with BT-549 breast; 0.402 µM in the test on DU-145 prostate; 0.313 µM in the test on HS 578T breast; 0.308 µM in the test on NCI/ADR-RES ovarian; 0.36 µM in the test on PC-3 prostate. The TGI with BT-549 breast, in the test on DU-145 prostate, in the test on HS 578T breast, in the test on NCI/ADR-RES ovarian and in the test with PC-3 prostate was > 100 µM in each case.

For the molecule `O=[N+]([O-])c1cc2c(ccc3occc32)o1`, the GI50 in the test on BT-549 breast is 1.87 µM; in the test on DU-145 prostate, 1.16 µM; in the test on HS 578T breast, 4.29 µM; in the test on NCI/ADR-RES ovarian, 3.28 µM; with PC-3 prostate it was 10.2 µM. In addition, the TGI with BT-549 breast worked out at 4.4 µM; in the test with DU-145 prostate, 9.84 µM; with HS 578T breast, 70.2 µM; in the test with NCI/ADR-RES ovarian, 30.9 µM; in the test on PC-3 prostate it was 38.4 µM.
